Data published in patent US20050054605A1, “Partial or full A1 agonists - N6 heterocyclic 5' thio substituted adenosine derivatives” (priority 1999, published 2005).

Tests used:
[1] = target: T1, A1 receptor in DDT1 cells (Mesocricetus auratus, UniProt A0A1U8BVR4); test: cAMP assay (SPA) in DDT1 cells, forskolin-induced cAMP; format: cell-based, hamster; conditions: forskolin 5 μM; for Camp: rolipram 50 μM, 10 min 37° C., normalized to the full agonist CPA
T1 construct: endogenous in cells; host or cells: DDT1 cells (hamster vas deferens smooth muscle cell line): membranes in A1 and A3, whole cells in A4
T1 sequence (A0A1U8BVR4 1-326): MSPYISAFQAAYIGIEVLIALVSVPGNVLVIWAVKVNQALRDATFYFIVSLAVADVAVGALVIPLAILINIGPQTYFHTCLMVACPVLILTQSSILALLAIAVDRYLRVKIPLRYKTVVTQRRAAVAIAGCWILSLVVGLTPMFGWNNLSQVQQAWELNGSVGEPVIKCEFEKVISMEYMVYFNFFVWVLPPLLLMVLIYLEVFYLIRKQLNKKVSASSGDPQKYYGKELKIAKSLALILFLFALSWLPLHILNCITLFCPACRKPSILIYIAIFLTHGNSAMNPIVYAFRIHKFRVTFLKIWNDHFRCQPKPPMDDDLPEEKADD
Procedure: (§1) DDT cells (hamster vas deferens smooth muscle cell line) were grown as monolayers in petri dishes using Dulbecco's Modified Eagle's Medium (DMEM) containing […] amphotericin B, 100 U ml^−1 penicillin G, 0.1 mg ml^−1 streptomycin sulfate and 5% fetal bovine serum in a humidified atmosphere of 95% air and 5% CO2. Cells were subcultured twice weekly by dispersion in Hank's Balanced Salt Solution (HBSS) without the divalent cations and containing 1 mM EDTA. The cells were then seeded in growth medium at a density of 1.2×10^5 cells per plate and experiments were performed 4 days later at approximately one day preconfluence.
A scintillation proximity assay (SPA) using rabbit antibodies directed at cAMP using an added tracer of adenosine 3′,5′-cyclic phosphoric acid 2′-O-succinyl-3-[^125I]iodotyrosine methyl ester and fluoromicrospheres containing anti-rabbit specific antibodies as described by Amersham Pharmacia Biotech (Biotrak cellular communication assays). Briefly, DDT1 cells were cultured in clear bottomed 96 well microtiter plates with opaque wells at concentrations between 10^4 to 10^6 cells per well in 40 μl of HBSS at 37° C. (5% CO2 and 95% humidity). The partial or full A1 agonists (5 μl) of this invention were incubated at various concentrations with the DDT1 cells in the presence of rolipram (50 μM), and 5 μM forskolin for 10 min at 37° C. The cells were immediately lysed by treatment 5 μl of 10% dodecyltrimethylammonium bromide followed by shaking using microplate shaker. After incubation of the plate for 5 minutes, an immunoreagent solution (150 μl containing equal volumes of tracer, antiserum, and SPA fluorospheres) was added to each well followed by sealing the plate. After 15-20 h at 23° C., the amount of bound [^125I] cAMP to the fluoromicrospheres was determined by counting in a microtitre plate scintillation counter for 2 minutes. Comparison of counts with standard curves generated for cAMP using a similar protocol afforded the cAMP present after cell lysis.

A1 receptor [2] = target: T2, A1 receptor (Sus scrofa, UniProt I3LEN5); test: Competitive binding assay, pig striatum membranes, [3H]CPX; conditions: pig striatal membranes, antagonist [3H]CPX 2 nM, 23 C, 2 h
T2 construct: from tissue; host or cells: pig striatum membranes
T2 sequence (I3LEN5 1-326): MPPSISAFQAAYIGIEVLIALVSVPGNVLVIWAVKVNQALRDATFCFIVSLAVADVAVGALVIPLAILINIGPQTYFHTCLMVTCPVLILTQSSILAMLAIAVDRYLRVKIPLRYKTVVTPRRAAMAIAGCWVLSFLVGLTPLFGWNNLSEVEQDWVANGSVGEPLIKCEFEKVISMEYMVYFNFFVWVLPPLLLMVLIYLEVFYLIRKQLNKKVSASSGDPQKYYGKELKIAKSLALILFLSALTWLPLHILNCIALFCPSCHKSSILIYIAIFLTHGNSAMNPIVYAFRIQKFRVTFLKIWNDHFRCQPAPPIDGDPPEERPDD
Procedure: (§2) Pig striatum were prepared by homogenation in 50 mM Tris buffer (5× volume of tissue mass pH=7.4). After centrifugation at 19,000 rpm for 25 minutes at 4° C., the supernatant was discarded, and the process was repeated twice. Compositions of this invention were assayed to determine their affinity for the A1 receptor in a pig striatum membrane prep or a DDT1 membrane prep. Briefly, 0.2 mg of pig striatal membranes or DDT1 cell membranes were treated with adenosine deaminase and 50 mM Tris buffer (pH=7.4) followed by mixing. To the pig membranes was added 2 μL of serially diluted DMSO stock solution of the compounds of this invention at concentrations ranging from 100 microM to 10 nM. The control received 2 microL of DMSO alone, then the antagonist [^3H] 8-cyclopentylxanthine (CPX) for pig striatum or the agonist [^3H] 2-chloro-6-cyclopentyladenosine (CCPA) for DDT1 membranes in Tris buffer (50 mM, pH of 7.4) was added to achieve a final concentration of 2 nM. After incubation at 23 C for 2 h, then the solutions were filtered using a membrane harvester using multiple washing of the membranes (3×). The filter disks were counted in scintillation cocktail affording the amount of displacement of tritiated CPX or by the competitive binding compositions of this invention. Greater than a 5 point curve was used to generate Ki's and the number of experiments is indicated in the column marked in Table 1, below: […]

A1 AdoR = target: T3, A1 AdoR (Mesocricetus auratus, UniProt A0A1U8BVR4); test: [35S]GTPγS binding assay (A1-agonist stimulated), DDT1 membranes; format: biochemical, hamster; conditions: stimulated [35S]GTPγS binding normalized to the full agonist CPA
T3 construct: endogenous in cells; host or cells: DDT1 cells (hamster vas deferens smooth muscle cell line): membranes in A1 and A3, whole cells in A4
T3 sequence (A0A1U8BVR4 1-326): T1 sequence (A0A1U8BVR4 1-326)
Procedure: as §1
(§3) Attached cells were washed twice with HBSS (2×10 ml), scraped free of the plate with the aid of a rubber policeman in 5 ml of 50 mM Tris-HCl buffer pH 7.4 at 4° C. and the suspension homogenized for 10 s. The suspension was then centrifuged at 27,000×g for 10 min. The pellet was resuspended in homogenization buffer by vortexing and centrifuged as described above. The final pellet was resuspended in 1 vol of 50 mM Tris-HCl buffer pH 7.4 containing 5 mM MgCl2 for A1 AdoR assays. For the [^35S]GTPγS binding assay the final pellet was resuspended in 50 mM Tris-HCl pH 7.4 containing 5 mM MgCl2, 100 mM NaCl and 1 mM dithiothreitol. This membrane suspension was then placed in liquid nitrogen for 10 min, thawed and used for assays. The protein content was determined with a Bradford™ Assay Kit using bovine serum albumin as standard.
A1-agonist stimulated [^35S] GTPγS binding was determined by a modification of the method described by Giersckik et al. (1991) and Lorenzen et al. (1993). […] Nonspecific binding was determined by the addition of 10 μM GTPγS. […] Previous reports have shown that agonist stimulated [^35S]GTPγS binding was dependent on the presence of GDP (Gierschik et al., 1991; Lorenzen et al., 1993; Traynor & Nahorski, 1995). […] In saturation experiments, 0.5 nM [^35S]GTPγS was incubated with 0.5-1000 nM GTPγS. At the end of the incubation, each suspension was filtered and the retained radioactivity determined as described above.

A1 receptor [3] = target: T4, A1 receptor (Mesocricetus auratus, UniProt A0A1U8BVR4); test: Competitive binding assay, DDT1 cell membranes, [3H]CCPA; set-up: species or system hamster; conditions: DDT1 membrane prep, agonist [3H]CCPA 2 nM, 23 C, 2 h
T4 construct: endogenous in cells; host or cells: DDT1 cells (hamster vas deferens smooth muscle cell line): membranes in A1 and A3, whole cells in A4
T4 sequence (A0A1U8BVR4 1-326): T1 sequence (A0A1U8BVR4 1-326)
Procedure: as §1, §3, §2

SMILES | effect on forskolin induced cAMP generation [1] | Camp [1] [%] | Ki (A1 receptor [2]) [nM] | GTP[…]S (A1 AdoR) [%] | Ki (A1 receptor [3]) [nM]
OC[C@H]1O[C@@H](n2cnc3c(NC4CCCC4)ncnc32)[C@H](O)[C@@H]1O [CPA, N-6-cyclopentyladenosine, reference compound] | diminished the amount of forskolin induced cAMP generation back to basal levels | 107 |  |  | 
CSC[C@H]1O[C@@H](n2cnc3c(N[C@@H]4CCOC4)ncnc32)[C@H](O)[C@@H]1O [Compound 7, 2-{6-[((3R)oxolan-3-yl)amino]purin-9-yl}(4S,5S,2R,3R)-5-(methylthiomethyl)oxolane-3,4-diol] |  |  | 222 |  | 
CCSC[C@H]1O[C@@H](n2cnc3c(N[C@@H]4CCOC4)ncnc32)[C@H](O)[C@@H]1O [Compound 8, 2-{6-[((3R)oxolan-3-yl)amino]purin-9-yl}(4S,5S,2R,3R)-5-[(Ethylthio)methyl]oxolane-3,4-diol] |  | 37 |  | 104 | 
CC(C)SC[C@H]1O[C@@H](n2cnc3c(N[C@@H]4CCOC4)ncnc32)[C@H](O)[C@@H]1O [Compound 10, 2-{6-[((3R)oxolan-3-yl)amino]purin-9-yl}(4S,5S,2R,3R)-5-[(Methylethylthio)methyl]oxolane-3,4-diol] |  |  | 188 |  | 
O[C@@H]1[C@H](O)[C@@H](CSc2ccccc2)O[C@H]1n1cnc2c(N[C@@H]3CCOC3)ncnc21 [Compound 11, 2-{6-[((3R)oxolan-3-yl)amino]purin-9-yl}(4S,5S,2R,3R)-5-(phenylthiomethyl)oxolane-3,4-diol] |  |  | 44 |  | 
COc1ccc(SC[C@H]2O[C@@H](n3cnc4c(N[C@@H]5CCOC5)ncnc43)[C@H](O)[C@@H]2O)cc1 [Compound 12, 2-{6-[((3R)oxolan-3-yl)amino]purin-9-yl}(4S,5S,2R,3R)-5-[(4-Methoxyphenylthio)methyl]oxolane-3,4-diol] |  | −9 |  | 52 | 820
O[C@@H]1[C@H](O)[C@@H](CSc2ccc(Cl)cc2)O[C@H]1n1cnc2c(N[C@@H]3CCOC3)ncnc21 [Compound 13, 2-{6-[((3R)oxolan-3-yl)amino]purin-9-yl}(4S,5S,2R,3R)-5-[(4-chlorophenylthio)methyl]oxolane-3,4-diol] |  | 30 |  | 69 | 
O[C@@H]1[C@H](O)[C@@H](CSc2ccc(F)cc2)O[C@H]1n1cnc2c(N[C@@H]3CCOC3)ncnc21 [Compound 14, 2-{6-[((3R)oxolan-3-yl)amino]purin-9-yl}(4S,5S,2R,3R)-5-[(4-fluorophenylthio)methyl]oxolane-3,4-diol] |  | 47 |  | 61 | 363
Cc1ccc(SC[C@H]2O[C@@H](n3cnc4c(N[C@@H]5CCOC5)ncnc43)[C@H](O)[C@@H]2O)cc1 [Compound 15, 2-{6-[((3R)oxolan-3-yl)amino]purin-9-yl}(4S,5S,2R,3R)-5-[(4-methylphenylthio)methyl]oxolane-3,4-diol] |  | 22 |  | 48 | 922
O[C@@H]1[C@H](O)[C@@H](CSc2ccc(C(F)(F)F)cc2)O[C@H]1n1cnc2c(N[C@@H]3CCOC3)ncnc21 [Compound 16, 2-{6-[((3R)oxolan-3-yl)amino]purin-9-yl}(4S,5S,2R,3R)-5-[(4-(trifluoromethyl)phenylthio)methyl]oxolane-3,4-diol] |  | 22 |  | 31 | 7700
COc1ccccc1SC[C@H]1O[C@@H](n2cnc3c(N[C@@H]4CCOC4)ncnc32)[C@H](O)[C@@H]1O [Compound 17, 2-{6-[((3R)oxolan-3-yl)amino]purin-9-yl}(4S,5S,2R,3R)-5-[(2-Methoxyphenylthio)methyl]oxolane-3,4-diol] |  | 18 |  | 52 | 947
